Data as given in US8278267B2 (Amylin Pharmaceuticals, LLC, priority 2005, dated 2012).

Tests used:
[1] = Pramlintide on satiation and binge eating (Binge Eating Scale), single-blind placebo-controlled study in obese subjects; format: in vivo, human
Procedure: The ability of the amylin agonist pramlintide to control or influence eating behavior was examined in human subjects. For the assessment, 24 hour-food intake (FI, ad-libitum meals), weight, feelings of hunger and fullness, and binge-eating (Binge Eating Scale, BES) were measured in a single-blind, placebo-controlled study. Obese subjects without eating disorders (50/50% female/male; BMI 35.61±3.98 kg/m^2, mean±SD) were randomized to six weeks of treatment with pramlintide or placebo. Pramlintide (180 μg) was administered subcutaneously three times per day (TID) prior to meals for 6 weeks and no lifestyle intervention was provided (TID evaluable N=59, placebo evaluable N=25). […] A follow-up evaluation of the subjects was performed four weeks after cessation of the treatment. In addition to the measurement of food intake and weight, subjects were also assessed for the feelings of hunger and fullness over a 12-hour observation period on the day before treatment, the first day of treatment, and on Day 43. During the study, subjects were categorized by binge-eating severity as mild, moderate, or severe based on total BES scores.

[2] = Pramlintide on weight and anthropometric parameters, 16-week double-blind placebo-controlled study in obese subjects; format: in vivo, human
Procedure: In a randomized, double-blind, placebo-controlled study, changes in body weight and anthropometric parameters, as well as indicators of glycemic control (e.g., HbA1c), serum lipids and glucose tolerance, were assessed in response to pramlintide administration to obese (BMI≧30 kg/m^2 to ≦50 kg/m^2) non-diabetic individuals and obese individuals with non-insulin treated type 2 diabetes mellitus.

[3] = Adsorption onto glass container in liquid form; format: physicochemical
[4] = human trials; cited from earlier work
[5] = CSI (N = 47), Baseline (Day −1)
[6] = TID (N = 59), Baseline (Day −1)
[7] = pramlintide 180 μg s.c. TID, after 6 weeks
[8] = 16 weeks, least squares mean±SE
[9] = after 16 weeks, evaluable population

Compound: CC[C@H](C)[C@H](NC(=O)[C@@H]1CCCN1C(=O)CNC(=O)[C@H](Cc1ccccc1)NC(=O)[C@H](CC(N)=O)NC(=O)[C@H](CC(N)=O)NC(=O)[C@H](CO)NC(=O)[C@H](CO)NC(=O)[C@H](Cc1c[nH]cn1)NC(=O)[C@@H](NC(=O)[C@H](CC(C)C)NC(=O)[C@H](Cc1ccccc1)NC(=O)[C@H](CC(N)=O)NC(=O)[C@H](C)NC(=O)[C@H](CC(C)C)NC(=O)[C@H](CCCNC(=N)N)NC(=O)[C@H](CCC(N)=O)NC(=O)[C@@H](NC(=O)[C@H](C)NC(=O)[C@@H]1CSSC[C@H](NC(=O)[C@@H](N)CCCCN)C(=O)N[C@@H](CC(N)=O)C(=O)N[C@@H]([C@@H](C)O)C(=O)N[C@@H](C)C(=O)N[C@@H]([C@@H](C)O)C(=O)N1)[C@@H](C)O)C(C)C)C(=O)N[C@@H](CC(C)C)C(=O)N1CCC[C@H]1C(=O)N1CCC[C@H]1C(=O)N[C@H](C(=O)N[C@@H](CC(N)=O)C(=O)N[C@H](C(=O)NCC(=O)N[C@@H](CO)C(=O)N[C@@H](CC(N)=O)C(=O)N[C@H](C(=O)N[C@@H](Cc1ccc(O)cc1)C(N)=O)[C@@H](C)O)C(C)C)[C@@H](C)O [Pramlintide, ^25,28,29Pro-h-amylin]
- reduction of mean total caloric intake compared with pooled placebo ([1]; CSI 50 μg/h, Day 43): ~7%
- reduction of mean total caloric intake compared with pooled placebo ([1]; CSI 50 μg/h, first day of treatment): approximately 22%
- subjects with total BES score >17 to <27 (Moderate) [1, 5]: (36.2) %
- subjects with total BES score ≦17 (Mild) [1, 5]: (51.1) %
- subjects with total BES score ≧27 (Severe) [1, 5]: (12.8) %
- subjects with total BES score >17 to <27 (Moderate) ([1]; CSI (N = 47), Day 42): (17.0) %
- subjects with total BES score ≦17 (Mild) ([1]; CSI (N = 47), Day 42): (74.5) %
- subjects with total BES score ≧27 (Severe) ([1]; CSI (N = 47), Day 42): (8.5) %
- subjects with total BES score >17 to <27 (Moderate) ([1]; CSI (N = 47), Day 72): (14.9) %
- subjects with total BES score ≦17 (Mild) ([1]; CSI (N = 47), Day 72): (63.8) %
- subjects with total BES score ≧27 (Severe) ([1]; CSI (N = 47), Day 72): (8.5) %
- subjects with total BES score >17 to <27 (Moderate) [1, 6]: (23.7) %
- subjects with total BES score ≦17 (Mild) [1, 6]: (64.4) %
- subjects with total BES score ≧27 (Severe) [1, 6]: (8.5) %
- subjects with total BES score ≦17 (Mild) ([1]; TID (N = 59), Baseline (Day −1), listed as pramlintide): 64.4%
- subjects with total BES score >17 to <27 (Moderate) ([1]; TID (N = 59), Day 42): (11.9) %
- subjects with total BES score ≦17 (Mild) ([1]; TID (N = 59), Day 42): (83.1) %
- subjects with total BES score ≧27 (Severe) ([1]; TID (N = 59), Day 42): (5.1) %
- subjects with total BES score ≦17 (Mild) ([1]; TID (N = 59), Day 42, listed as pramlintide): 83.1%
- subjects with total BES score >17 to <27 (Moderate) ([1]; TID (N = 59), Day 72): (13.6) %
- subjects with total BES score ≦17 (Mild) ([1]; TID (N = 59), Day 72): (76.3) %
- subjects with total BES score ≧27 (Severe) ([1]; TID (N = 59), Day 72): (5.1) %
- reduction of mean total caloric intake compared with pooled placebo ([1]; TID, Day 43): ~15%
- reduction of mean total caloric intake compared with pooled placebo ([1]; TID, first day of treatment): approximately 17%
- placebo-corrected reduction from baseline in mean BES score ([1]; after 6 weeks): −45±13%
- proportion of subjects shifting to a lower binge-eating severity category ([1]; after 6 weeks, placebo […]): 24.6%
- reductions from baseline in the total BES score after cessation ([1]; four weeks after cessation of treatment): no longer statistically significant
- placebo-corrected reduction from baseline in 24-hour food intake [1, 7]: -489 ± 183 kcal
- placebo-corrected reduction from baseline in weight [1, 7]: −2.2±0.5%
- placebo-corrected reduction in hip circumference [2, 8]: 2.69±0.82 cm
- placebo-corrected reduction in waist circumference [2, 8]: 2.691±1.08 cm
- percentage of subjects achieving >5% reduction in baseline body weight ([2]; Class I (BMI <35 kg/m^2), n 43, placebo 0%): 39.5%
- percentage of subjects achieving >5% reduction in baseline body weight ([2]; Class II (BMI ≧35 kg/m^2 to <40 kg/m^2), n 25, placebo 0%): 28.0%
- percentage of subjects achieving >5% reduction in baseline body weight ([2]; Class II (BMI ≧40 kg/m^2), n 29, placebo 5.0%): 20.7%
- placebo-corrected mean weight loss [2, 9]: 3.52 kg
- placebo-corrected mean weight loss, of initial body weight [2, 9]: 3.6%
- subjects who lost ≧5% of body weight ([2]; after 16 weeks, placebo 2%): 31%
- tendency to adsorb onto the glass [3]: does not have a tendency to adsorb onto the glass
- weight or weight gain [4]: reduce weight or weight gain
